Read-outs that look alike come from different tables or passages of the source.
Target: T1, human Nav1.8 (hNav1.8) ion channel (Homo sapiens, UniProt Q9Y5Y9)
T1 construct: expressed in transfected cells
Assay: Inhibition of human Nav1.8 stably expressed in SH-SY-5Y cells (membrane potential dye fluorescence assay)
Format: cell-based
Description: Inhibition of Human Nav1.8 Stably Expressed in SH-SY-5Y Cells
A SH-SY-5Y neuroblastoma cell line stably expressing the human […] (hNav1.8) ion channel was constructed. This cell line has been used to develop a medium to high throughput assay for determining the ability of test compounds to inhibit membrane depolarisation mediated via the hNav1.8 channel.
SH-SY-5Y hNav1.8 are grown in adherent monolayer culture using 50:50 Ham's F-12/EMEM tissue culture medium supplemented with 15% (v/v) foetal bovine serum; 2 mM L-glutamine, 1% NEAA and 600 μg·ml^−1 Geneticin sulphate. Cells are removed from the tissue culture flask using trypsin/EDTA and re-plated into black walled, clear bottom 96-well assay plates at 50,000 cells·well^−1 24 hours prior to assay.
On the day of assay the cell assay plates are washed to remove cell culture medium using a sodium free assay buffer (145 mM tetramethyl ammonium chloride; 2 mM calcium chloride; 0.8 mM magnesium chloride hexahydrate; 10 mM HEPES; 10 mM glucose; 5 mM potassium chloride, pH 7.4). Fluorescent membrane potential dye solution (FLIPR™ membrane potential dye, Molecular Devices Corporation), containing 10 μM of a pyrethroid to prevent channel inactivation and 250 nM tetrodotoxin (TTX) to reduce interference from TTX-sensitive sodium channels present in the cell line. Test compound, initially dissolved in dimethyl sulfoxide but further diluted in sodium free buffer, is added to achieve the final test concentration range of 100 μM-0.05 μM.
Cell plates are incubated for 30 minutes at room temperature to allow equilibration of dye and test compound. Plates are then transferred to a fluorescence plate reader for fluorescence measurement using an excitation wavelength of 530 nm whilst measuring fluorescence emission at 565 nm. Baseline fluorescence levels are first determined before the addition of a sodium containing buffer (220 mM sodium chloride; 2 mM calcium chloride; 0.8 mM magnesium chloride hexahydrate; […]; 10 mM glucose; 5 mM potassium chloride. pH 7.4) to cause membrane depolarisation in those cells where channel block has not been effected (final sodium concentration=72.5 mM). Membrane depolarisation is registered by an increase in fluorescence emission at 565 nm.
The change in fluorescence seen in each test well upon the addition of sodium containing buffer is calculated relative to the baseline fluorescence for that well. This figure is then used for calculating the IC50 for each test compound.

[1] = Table 2 (compound numbers of the list in the description), SH-SY-5Y hNav1.8 cells, inhibition of membrane depolarisation, FLIPR membrane potential dye, 250 nM TTX, test concentration range 100 μM-0.05 μM, read-out: IC50
[2] = Table 1, SH-SY-5Y hNav1.8 cells, inhibition of membrane depolarisation, FLIPR membrane potential dye, 250 nM TTX, test concentration range 100 μM-0.05 μM, read-out: IC50

T1 sequence (Q9Y5Y9 whole entry): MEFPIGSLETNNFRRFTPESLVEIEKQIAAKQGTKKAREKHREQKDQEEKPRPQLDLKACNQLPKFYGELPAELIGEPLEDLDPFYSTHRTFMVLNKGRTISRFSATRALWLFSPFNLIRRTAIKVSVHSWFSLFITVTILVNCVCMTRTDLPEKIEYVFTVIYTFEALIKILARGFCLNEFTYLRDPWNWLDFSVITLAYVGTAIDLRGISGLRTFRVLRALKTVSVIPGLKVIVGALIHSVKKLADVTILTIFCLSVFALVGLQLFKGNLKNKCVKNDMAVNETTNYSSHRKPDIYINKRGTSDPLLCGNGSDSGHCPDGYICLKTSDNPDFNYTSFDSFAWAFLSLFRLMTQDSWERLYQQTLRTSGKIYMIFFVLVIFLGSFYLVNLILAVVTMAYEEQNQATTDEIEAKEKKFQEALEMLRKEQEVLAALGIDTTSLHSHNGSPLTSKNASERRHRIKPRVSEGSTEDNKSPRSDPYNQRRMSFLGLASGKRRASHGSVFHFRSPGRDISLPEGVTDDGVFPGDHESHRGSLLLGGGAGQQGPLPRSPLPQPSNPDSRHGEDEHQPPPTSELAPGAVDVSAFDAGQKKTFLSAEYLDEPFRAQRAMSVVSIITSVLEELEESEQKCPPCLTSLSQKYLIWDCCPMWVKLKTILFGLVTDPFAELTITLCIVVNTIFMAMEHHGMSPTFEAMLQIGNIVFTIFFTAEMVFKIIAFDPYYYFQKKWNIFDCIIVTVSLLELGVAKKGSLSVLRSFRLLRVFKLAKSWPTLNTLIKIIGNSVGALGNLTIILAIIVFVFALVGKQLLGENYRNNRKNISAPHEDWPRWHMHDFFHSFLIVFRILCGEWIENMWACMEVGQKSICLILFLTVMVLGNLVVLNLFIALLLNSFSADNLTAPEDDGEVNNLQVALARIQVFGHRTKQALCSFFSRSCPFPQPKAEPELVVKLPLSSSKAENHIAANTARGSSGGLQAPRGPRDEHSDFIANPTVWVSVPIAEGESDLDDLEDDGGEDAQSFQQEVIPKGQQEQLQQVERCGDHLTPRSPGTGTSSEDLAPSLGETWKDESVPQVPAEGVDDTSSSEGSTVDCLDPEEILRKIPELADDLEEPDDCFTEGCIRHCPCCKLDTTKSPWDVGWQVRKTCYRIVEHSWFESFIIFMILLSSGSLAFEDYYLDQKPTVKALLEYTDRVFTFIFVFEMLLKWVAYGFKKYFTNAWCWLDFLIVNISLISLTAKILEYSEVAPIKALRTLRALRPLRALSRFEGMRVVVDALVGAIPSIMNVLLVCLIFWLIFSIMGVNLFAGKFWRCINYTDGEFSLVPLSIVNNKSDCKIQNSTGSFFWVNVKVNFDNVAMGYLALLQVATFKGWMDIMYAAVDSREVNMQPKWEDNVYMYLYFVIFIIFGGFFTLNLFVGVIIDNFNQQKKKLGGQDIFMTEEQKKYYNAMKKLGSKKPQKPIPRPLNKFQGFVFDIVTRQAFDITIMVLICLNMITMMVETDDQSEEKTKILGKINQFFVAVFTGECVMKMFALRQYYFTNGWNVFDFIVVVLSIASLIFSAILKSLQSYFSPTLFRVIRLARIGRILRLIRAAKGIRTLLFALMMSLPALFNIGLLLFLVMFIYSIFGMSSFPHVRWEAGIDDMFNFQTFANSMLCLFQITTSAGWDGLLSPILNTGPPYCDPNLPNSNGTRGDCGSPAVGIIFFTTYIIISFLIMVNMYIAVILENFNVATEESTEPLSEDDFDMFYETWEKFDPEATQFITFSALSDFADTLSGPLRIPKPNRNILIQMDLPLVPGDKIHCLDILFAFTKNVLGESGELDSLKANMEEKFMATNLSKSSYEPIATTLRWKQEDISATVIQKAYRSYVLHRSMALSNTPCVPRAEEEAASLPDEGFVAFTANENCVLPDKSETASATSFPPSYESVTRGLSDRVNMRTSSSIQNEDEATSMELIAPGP

| SMILES | IC50 [1] [nM] | other results |
| --- | --- | --- |
| O=C(CN1CCc2cccc(O)c2C1)N(c1ccccc1)c1ccc(O)cc1 [Compound 176, 2-(8-Hydroxy-3,4-dihydro-1H-isoquinolin-2-yl)-N-(4-hydroxy-phenyl)-N-phenyl-acetamide] | – | IC50: 5950 nM |
| COc1ccc(C(CCNC(=O)CN2CCc3cccc(OC)c3C2)c2ccc(OC)cc2)cc1 [Compound 115, N-[3,3-Bis-(4-methoxy-phenyl)-propyl]-2-(8-methoxy-3,4-dihydro-1H-isoquinolin-2-yl)-acetamide] | 2350 | – |
| COc1ccc(C2COc3ccccc3N2C(=O)CN2CCc3cccc(OC)c3C2)cc1 (centres unmarked) [Compound 212, 2-(8-Methoxy-3,4-dihydro-1H-isoquinolin-2-yl)-1-[3-(4-methoxy-phenyl)-2,3-dihydro-benzo[1,4]oxazin-4-yl]-ethanone] | 5060 | – |
| COc1cccc2c1CN(CC(=O)N1c3ccccc3Sc3ccc(SC)cc31)CC2 [Compound 159, 2-(8-Methoxy-3,4-dihydro-1H-isoquinolin-2-yl)-1-(2-methylsulfanyl-phenothiazin-10-yl)-ethanone] | 20800 | – |
| COc1cc2c(cc1OC)CN(CC(=O)N1c3ccccc3Sc3ccc(C(C)=O)cc31)CC2 [Compound 155, 1-(2-Acetyl-phenothiazin-10-yl)-2-(6,7-dimethoxy-3,4-dihydro-1H-isoquinolin-2-yl)-ethanone] | 6260 | – |
| O=C(CN1CCc2cccc(O)c2C1)N(Cc1ccccc1)c1ccccc1 [Example 25, N-Benzyl-2-(8-hydroxy-3,4-dihydro-1H-isoquinolin-2-yl)-N-phenyl-acetamide] | – | IC50 (IC50, Table 1, SH-SY-5Y hNav1.8 cells, inhibition of membrane depolarisation, FLIPR membrane potential dye, 250 nM TTX, test concentration range 100 μM-0.05 μM): 1070 nM |
| Nc1cccc2c1CN(CC(=O)NC(c1ccccc1)c1ccccc1)CC2 [Compound 108, 2-(8-Amino-3,4-dihydro-1H-isoquinolin-2-yl)-N-benzhydryl-acetamide] | 3480 | – |
| COc1cccc2c1CN(CC(=O)N(C(C)C)C(C)C)CC2 [Compound 78, N,N-diisopropyl-2-(8-methoxy-3,4-dihydro-1H-isoquinolin-2-yl)-acetamide] | 28500 | – |
| COc1ccc2c(c1)CN(CCN(Cc1ccccc1)Cc1ccccc1)CC2 [Example 88, Dibenzyl-[2-(7-methoxy-3,4-dihydro-1H-isoquinolin-2-yl)-ethyl]-amine] | – | IC50 [2]: 580 nM |
| O=C(CN1CCc2cccc(O)c2C1)N1c2ccccc2OCC1c1ccccc1 (centres unmarked) [Example 70, 2-(8-Hydroxy-3,4-dihydro-1H-isoquinolin-2-yl)-1-(3-phenyl-2,3-dihydro-benzo[1,4]oxazin-4-yl)-ethanone] | – | IC50 [2]: 2140 nM |
| O=C(CN1CCc2ccccc2C1)NC(c1ccccc1)c1ccccc1 [Example 14, N-Benzyhydryl-2-(3,4-dihydro-1H-isoquinolin-2-yl)-acetamide] | – | IC50 [2]: 1590 nM |
| COc1ccc2c(c1)CN(CC(=O)NCCC(c1ccccc1)c1ccccc1)CC2 [Example 86, N-(3,3-Diphenyl-propyl)-2-(7-methoxy-3,4-dihydro-1H-isoquinolin-2-yl)-acetamide] | – | IC50 [2]: 1460 nM |
| COc1ccc2c(c1)CCCN(CC(=O)NCCC(c1ccccc1)c1ccccc1)C2 [Compound 85, N-(3,3-diphenyl-propyl)-2-(7-methoxy-1,3,4,5-tetrahydro-benzo[c]azepin-2-yl)-acetamide] | 1080 | – |
| Nc1cccc2c1CCN(CC(=O)NCC(c1ccccc1)c1ccccc1)C2 [Compound 123, 2-(5-Amino-3,4-dihydro-1H-isoquinolin-2-yl)-N-(2,2-diphenyl-ethyl)-acetamide] | 2890 | – |
| Nc1cccc2c1CN(CC(=O)NCC(c1ccccc1)c1ccccc1)CC2 [Compound 111, 2-(8-Amino-3,4-dihydro-1H-isoquinolin-2-yl)-N-(2,2-diphenyl-ethyl)-acetamide] | 3880 | – |
| Oc1cccc2c1CN(CCN(Cc1ccccc1)Cc1ccccc1)CC2 [Example 8] | – | IC50 [2]: 410 nM |

| SMILES | IC50 [1] [nM] | other results |
| --- | --- | --- |
| C=CCOc1cccc2c1CN(CC(=O)NCCC(c1ccccc1)c1ccccc1)CC2 [Compound 97, 2-(8-Allyloxy-3,4-dihydro-1H-isoquinolin-2-yl)-N-(3,3-diphenyl-propyl)-acetamide] | 2270 | – |
| COc1ccc2c(c1)CN(CC(=O)N(Cc1ccccc1)Cc1ccccc1)CC2 [Example 87, N,N-Dibenzyl-2-(7-methoxy-3,4-dihydro-1H-isoquinolin-2-yl)-acetamide] | – | IC50 [2]: 1100 nM |
| c1ccc(C(CCNCCN2CCc3ccccc3C2)c2ccccc2)cc1 [Example 46, [2-(3,4-Dihydro-1H-isoquinolin-2-yl)-ethyl]-(3,3-diphenyl-propyl)-amine] | – | IC50 [2]: 290 nM |
| COc1cccc2c1CN(CCC(=O)N1c3ccccc3Oc3ccccc31)CC2 [Compound 189, 3-(8-Methoxy-3,4-dihydro-1H-isoquinolin-2-yl)-1-phenoxazin-10-yl-propan-1-one] | 510 | – |
| COc1cc2c(cc1OC)CN(CCNC(=O)NC(c1ccccc1)c1ccccc1)CC2 [Compound 136, 1-Benzhydryl-3-[2-(6,7-dimethoxy-3,4-dihydro-1H-isoquinolin-2-yl)-ethyl]-urea] | 2110 | – |
| COc1cc2c(cc1OC)CN(CCNC(=S)NCC(c1ccccc1)c1ccccc1)CC2 [Compound 138, 1-[2-(6,7-Dimethoxy-3,4-dihydro-1H-isoquinolin-2-yl)-ethyl]-3-(2,2-diphenyl-ethyl)-thiourea] | 520 | – |
| S=C(NC(c1ccccc1)c1ccccc1)N1CCc2ccccc2C1 [Example 50, 3,4-Dihydro-1H-isoquinoline-2-carbothioic acid benzhydryl-amide] | – | IC50 [2]: 2740 nM |
| COc1cccc2c1CN(CC(=O)NC(C)c1ccccc1)CC2 (centres unmarked) [Compound 105, 2-(8-Methoxy-3,4-dihydro-1H-isoquinolin-2-yl)-N-(1-phenyl-ethyl)-acetamide] | 15900 | – |
| O=C(CN1CCc2cccc(O)c2C1)N1c2ccccc2Oc2ccccc21 [Compound 144, 2-(8-Hydroxy-3,4-dihydro-1H-isoquinolin-2-yl)-1-phenoxazin-10-yl-ethanone] | 500 | – |
| O=C(CN1Cc2ccccc2C1)NCCC(c1ccccc1)c1ccccc1 [Example 40, 2-(1,3-Dihydro-isoindol-2-yl)-N-(3,3-diphenyl-propyl)-acetamide] | 530 | IC50 [2]: 970 nM |
| COc1cccc2c1CN(CC(=O)NCCCn1c3ccccc3c3ccccc31)CC2 [Compound 128, N-(3-Carbazol-9-yl-propyl)-2-(8-methoxy-3,4-dihydro-1H-isoquinolin-2-yl)-acetamide] | 3510 | – |
| COc1cccc2c1CN(CC(=O)N1c3ccccc3OCC1C)CC2 (centres unmarked) [Compound 205, 2-(8-Methoxy-3,4-dihydro-1H-isoquinolin-2-yl)-1-(3-methyl-2,3-dihydro-benzo[1,4]oxazin-4-yl)-ethanone] | 4630 | – |
| O=C(NCCN1CCc2cccc(O)c2C1)N1c2ccccc2Oc2ccccc21 [Compound 163, Phenoxazine-10-carboxylic acid [2-(8-hydroxy-3,4-dihydro-1H-isoquinolin-2-yl)-ethyl]-amide] | 770 | – |
| Nc1cccc2c1CN(CC(=O)NCCC(c1ccccc1)c1ccccc1)C2 [Compound 99, 2-(4-Amino-1,3-dihydro-isoindol-2-yl)-N-(3,3-diphenyl-propyl)-acetamide] | 2430 | – |
| COc1cccc2c1CN(CCNC(=S)NC(c1ccccc1)c1ccccc1)CC2 [Compound 133, 1-Benzhydryl-3-[2-(8-methoxy-3,4-dihydro-1H-isoquinolin-2-yl)-ethyl]-thiourea] | 600 | – |

From patent US20070043024A1, “Azacyclic compounds as inhibitors of sensory neurone specific channels” (priority 2003, published 2007)
